From publication PMC7926793, “Synthesis and Biological Evaluation of 1-(Diarylmethyl)-1H-1,2,4-triazoles and 1-(Diarylmethyl)-1H-imidazoles as a Novel Class of Anti-Mitotic Agent for Activity in Breast Cancer” (Pharmaceuticals, 2021)
Like-named read-outs stand apart in the source and are kept apart here.

Columns and labels:
SR = assay: NCI 60 cell line screen (Leukemia); assay type: cell-based, human; conditions: for Growth percentage: single dose 10 µM
HOP-62 = assay: NCI 60 cell line screen (Non-Small Cell Lung Cancer); assay type: cell-based, human; conditions: for Growth percentage: HOP-62, single dose 10 µM; for GI50: Homo sapiens, HOP-62, NCI 5 dose assay
EKVX = assay: as above; assay type: cell-based, human; conditions: for Growth percentage: single dose 10 µM; for GI50: Homo sapiens, NCI 5 dose assay
NCI-H226 = assay: as above; assay type: cell-based, human; conditions: for Growth percentage: NCI-H226, single dose 10 µM; for GI50: Homo sapiens, NCI-H226, NCI 5 dose assay
NCI-H23 = assay: as above; assay type: cell-based, human; conditions: for Growth percentage: NCI-H23, single dose 10 µM; for GI50: Homo sapiens, NCI-H23, NCI 5 dose assay
COLO 205 = assay: NCI 60 cell line screen (Colon Cancer); assay type: cell-based, human; conditions: for Growth percentage: COLO 205, single dose 10 µM; for GI50: Homo sapiens, COLO 205, NCI 5 dose assay
HT29 = assay: NCI 60 cell line screen (Colon Cancer); assay type: cell-based, human; conditions: for Growth percentage: HT29, single dose 10 µM; for GI50: Homo sapiens, HT-29, HT29, NCI 5 dose assay
SF-268 = assay: NCI 60 cell line screen (CNS Cancer); assay type: cell-based, human; conditions: for Growth percentage: SF-268, single dose 10 µM; for GI50: Homo sapiens, SF-268, NCI 5 dose assay
PC-3 = assay: NCI 60 cell line screen (Prostate cancer); assay type: cell-based, human; conditions: for Growth percentage: PC-3, single dose 10 µM; for GI50: Homo sapiens, PC-3, NCI 5 dose assay
DU-145 = assay: NCI 60 cell line screen (Prostate cancer); assay type: cell-based, human; conditions: for Growth percentage: DU-145, single dose 10 µM; for GI50: Homo sapiens, DU-145, NCI 5 dose assay
MDA-MB-435 = assay: NCI 60 cell line screen (Melanoma); assay type: cell-based, human; conditions: for Growth percentage: MDA-MB-435, single dose 10 µM; for GI50: Homo sapiens, MDA-MB-435, NCI 5 dose assay
SK-MEL-28 = assay: NCI 60 cell line screen (Melanoma); assay type: cell-based, human; conditions: SK-MEL-28, single dose 10 µM
OVCAR-4 = assay: NCI 60 cell line screen (Ovarian Cancer); assay type: cell-based, human; conditions: for Growth percentage: OVCAR-4, single dose 10 µM; for GI50: Homo sapiens, OVCAR-4, NCI 5 dose assay
UO-31 = assay: NCI 60 cell line screen (Renal Cancer); assay type: cell-based, human; conditions: for Growth percentage: UO-31, single dose 10 µM; for GI50: Homo sapiens, UO-31, NCI 5 dose assay
MDA-MB-231/ATCC = assay: NCI 60 cell line screen (Breast Cancer); assay type: cell-based, human; conditions: for Growth percentage: single dose 10 µM; for GI50: Homo sapiens, NCI 5 dose assay
[1] = system: MCF-7 human breast cancer cells; assay: alamarBlue cell viability assay; assay type: cell-based; conditions: 72 h; for viability at 1 µM: MCF7, read-out: cell viability (viable cells); for IC50: alamarBlue, read-out: Antiproliferative Activity MCF-7 Cells IC50
Experimental: (§1) The human breast carcinoma cell line MCF-7 was purchased from the European Collection of Animal Cell Cultures (ECACC) and cultured in Eagles minimum essential medium with 10% foetal bovine serum, 2 mM L-glutamine, and 100 μg/mL penicillin/streptomycin. The medium was supplemented with 1% non-essential amino acids. The human breast carcinoma cell line MDA-MB-231 was purchased from the ECACC. MDA-MB-231 cells were maintained in Dulbecco’s modified Eagle’s medium (DMEM) supplemented with 10% (v/v) foetal bovine serum, 2 mM L-glutamine, and 100 μg/mL penicillin/streptomycin (complete medium). HL-60 cells were derived from a patient with acute myeloid leukaemia and were obtained from the ECACC (Salisbury, UK). Cells were cultured in RPMI-1640 Glutamax medium supplemented with 10% FCS media and 100 μg/mL penicillin/streptomycin. MCF-10A cells were obtained as a kind gift from Dr Susan McDonnell, School of Chemical and Bioprocess Engineering, University College Dublin and were cultured in Dulbecco’s Modified Eagle Medium: Nutrient Mixture F-12 (DMEM/F12; Gibco) supplemented with 5% horse serum (Invitrogen), 20 ng mL^−1 epidermal growth factor (Merck Millipore), 0.5 μg mL^−1 hydrocortisone (Sigma,-Aldrich, Arklow, Co. Wicklow, Ireland), 100 ng mL^−1 cholera toxin (Sigma, Aldrich, Arklow, Co. Wicklow, Ireland), 10 μg mL^−1 insulin (Sigma, Aldrich, Arklow, Co. Wicklow, Ireland), and penicillin/streptomycin 5000 U mL^−1 (1%)(Gibco, Biosciences, 3 Charlemont Terrace, Crofton Road, Dun Laoghaire, Co Dublin, A96 K7H7, Ireland). Cells were maintained at 37 °C in 5% CO2 in a humidified incubator. All cells were sub-cultured 3 times/week by trypsinisation using TrypLE Express (1×).
(§2) Cells were seeded at a density of 2.5 × 10^4 cells/well (MCF-7, MDA-MB-231, MCF-10A cells) and 1 × 10^4 cells/well (HL-60) in 96-well plates (200 μL per well). After 24 h, cells were then treated with either medium alone, vehicle control (1% ethanol (v/v)) or with serial dilutions of CA-4 (4a), phenstatin (7a) or selected compounds (0.001–100 μM) in triplicate. Cell proliferation for MCF-7, MDA-MB-231, and MCF-10A cells was analysed using the alamarBlue assay (Invitrogen Corp.) according to the manufacturer’s instructions. After 67–69 h, alamarBlue (10% (v/v)) was added to each well, and plates were incubated for 3–5 h at 37 °C in the dark. Fluorescence was read using a 96-well fluorimeter with excitation at 530 nm and emission at 590 nm. Results were expressed as percentage viability relative to vehicle control (100%).

[2] = system: MDA-MB-231 human breast cancer cells; assay: alamarBlue cell viability assay; assay type: cell-based; conditions: read-out: Antiproliferative Activity MDA-MB-231 Cells IC50
Experimental: as §1, §2

CYP1A1 = target: T1, CYP1A1 (Homo sapiens, UniProt P04798); assay: cytochrome P450 assay (DBF fluorescence); conditions: for IC50: IC50 CYP1A1; for inhibition at 25 min, 20 µg/mL: human, recombinant CYP1A1, pH 7.4, probe dibenzylfluorescein (DBF), 2.0 μM
T1 sequence (P04798 1-512): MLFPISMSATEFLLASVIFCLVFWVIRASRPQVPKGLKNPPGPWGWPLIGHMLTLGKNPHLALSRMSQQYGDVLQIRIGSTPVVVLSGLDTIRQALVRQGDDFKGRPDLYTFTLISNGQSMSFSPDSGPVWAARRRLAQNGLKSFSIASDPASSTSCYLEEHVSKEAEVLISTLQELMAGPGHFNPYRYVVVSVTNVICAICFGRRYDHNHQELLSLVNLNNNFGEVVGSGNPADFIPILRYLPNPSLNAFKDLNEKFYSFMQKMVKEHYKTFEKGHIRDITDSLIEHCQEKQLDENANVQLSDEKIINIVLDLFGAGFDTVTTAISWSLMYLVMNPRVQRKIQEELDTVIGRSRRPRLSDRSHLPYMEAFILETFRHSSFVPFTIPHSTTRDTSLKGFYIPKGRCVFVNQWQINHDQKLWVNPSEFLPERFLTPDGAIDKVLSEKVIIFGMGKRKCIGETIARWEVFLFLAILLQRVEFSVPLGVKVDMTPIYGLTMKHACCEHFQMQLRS

SMILES	Growth percentage (SR)	Growth percentage (HOP-62)	Growth percentage (EKVX)	Growth percentage (NCI-H226)	Growth percentage (NCI-H23)	Growth percentage (COLO 205)	Growth percentage (HT29)	Growth percentage (SF-268)	Growth percentage (PC-3)	Growth percentage (DU-145)	Growth percentage (MDA-MB-435)	Growth percentage (SK-MEL-28)	Growth percentage (OVCAR-4)	Growth percentage (UO-31)	Growth percentage (MDA-MB-231/ATCC)	viability at 1 µM ([1]; Homo sapiens)	IC50 ([1]; Homo sapiens, MCF7, 72 h)	IC50 ([2]; Homo sapiens, MDA-MB-231, 72 h)	IC50 (CYP1A1)	inhibition at 25 min, 20 µg/mL (CYP1A1)	also measured
COc1ccc(C(c2cc(OC)c(OC)c(OC)c2)N2CCN(Cc3ccccc3)CC2)cc1 (centres unmarked) [27d]	16.10%	69.72%	82.69%	85.40%	88.53%	61.78%	28.31%	86.44%	59.28%	102.00%	-32.20%	78.33%	97.02%	68.80%	71.05%						
COc1ccc(C(c2cc(OC)c(OC)c(OC)c2)N2CCCC2)cc1 (centres unmarked) [25g]	23.87%	79.46%	87.78%	87.61%	85.27%	71.23%	40.59%	84.26%	63.89%	103.12%	-21.80%	80.08%	101.25%	75.13%	80.82%	82%					
COc1ccc(C(c2cc(OC)c(OC)c(OC)c2)n2ccnc2)cc1O (centres unmarked) [21l, 5-((1H-Imidazol-1-yl)(3,4,5-Trimethoxyphenyl)Methyl)-2-Methoxyphenol]	8.48%	29.46%	30.23%	68.70%	38.92%	-9.99%	5.94%	39.64%	20.69%	12.91%	-29.47%	62.95%	73.56%	61.96%	34.75%	31%	130 nM	237 ± 40 nM	> 54000 nM	18.4%	IC50 [1]: 132 ± 7 nM; GI50 (SR; Homo sapiens, NCI 5 dose assay): 182 nM; GI50 (HOP-62): 516 nM; GI50 (EKVX): 702 nM; GI50 (NCI-H226): 640 nM; GI50 (NCI-H23): 882 nM; GI50 (COLO 205): 361 nM; GI50 (HT29): 312 nM; GI50 (SF-268): 731 nM; GI50 (PC-3): 384 nM; GI50 (DU-145): 407 nM; GI50 (MDA-MB-435): 119 nM; GI50 (OVCAR-4): 3440 nM; GI50 (UO-31): 883 nM; GI50 (MDA-MB-231/ATCC): 664 nM
COc1ccc(C(c2cc(OC)c(OC)c(OC)c2)n2cncn2)cc1O (centres unmarked) [19e, 5-((1H-1,2,4-Triazol-1-yl)(3,4,5-Trimethoxyphenyl)methyl)-2-Methoxyphenol]		32.17%	39.79%	73.39%	39.85%	-1.65%	5.30%	48.75%	21.20%	19.64%	-46.16%	57.04%	72.08%	57.96%	43.15%	29%		980 nM	> 53800 nM	18.1%	IC50 ([2]; 72 h): 978 ± 130 nM; GI50 (HOP-62): 514 nM; GI50 (EKVX): 2240 nM; GI50 (NCI-H226): 1430 nM; GI50 (NCI-H23): 977 nM; GI50 (COLO 205): 332 nM; GI50 (HT29): 330 nM; GI50 (SF-268): 469 nM; GI50 (PC-3): 431 nM; GI50 (DU-145): 530 nM; GI50 (MDA-MB-435): 181 nM; GI50 (OVCAR-4): 3020 nM; GI50 (UO-31): 903 nM; GI50 (MDA-MB-231/ATCC): 1500 nM
COc1ccc(C(c2cc(OC)c(OC)c(OC)c2)N2CCCCC2)cc1 (centres unmarked) [26b, 1-((4-Methoxyphenyl)(3,4,5-Trimethoxyphenyl)Methyl)Piperidine]	18.46%	29.82%	59.13%	55.46%	59.28%	16.14%	7.93%	47.22%	25.08%	64.18%	-21.79%	47.22%	69.25%	48.76%	53.09%	78%					
COc1ccc(C(c2cc(OC)c(OC)c(OC)c2)n2nccn2)cc1O (centres unmarked) [compound 24]																27%	52 ± 40 nM	74 ± 30 nM	> 53800 nM	12.8%	
